In patent publication US10729671B2, “Zinc complexes of hydrazones and (thio)semicarbazones and their use for the treatment of cancer” (RUTGERS, THE STATE UNIVERSITY OF NEW JERSEY, priority 2015, dated 2020):

What was measured:
TOV112D = assay: Cell-based TOV112D activity (cell growth inhibition assay); parameters: species or system human
HEK293 cells = assay: Intracellular [Zn2+]free imaging with FluoZin-3-AM in HEK293 cells; format: cell-based
Procedure: (§1) To minimize the potential for Zn^2+ contamination and contributions from poorly defined elements in complete media (e.g. FBS), cells were treated and imaged in Ca^2+ and Mg^2+-free Earle's Balanced Salt Solution supplemented with 10 mM HEPES pH 7.4 (EBSS/H (−)Ca/Mg). Excess ZnCl2 with the Zn^2+ ionophore pyrithione (PYR) was used as a positive control. Excess membrane-permeable Zn^2+ chelator N,N,N′,N′-tetrakis(2-pyridylmethyl)ethane-1,2-diamine (TPEN) was used as a negative control.
To normalize for differential dye loading, cells were then sequentially treated with excess PYR/ZnCl2, imaged, treated with TPEN, and imaged again. PYR/ZnCl2 and TPEN served to saturate and apoize the intracellular FZ3, respectively.
(§2) [formula] where Ji is the initial flux, ΔF/Δt is the slope of the fit line, Fmax is RZ-3 fluorescence in the presence of saturating Zn^2+ and 1% TritonX-100, Fmin is RZ-3 fluorescence in the presence of excess EDTA and 1% TritonX-100, [RZ3] is the concentration of encapsulated RZ-3, and SA/Vol is the surface area to volume ratio calculated assuming hollow spheres of the mean diameter determined by DLS. Intracellular [Zn^2+]free Imaging TOV112D or HEK293 cells (40,000 cells/well) were plated on either 8-well BD Falcon chambered culture slides (Corning Life Sciences) or 8-chambered #1.5 Nunc Lab-Tek II chambered coverglasses (Thermo Scientific) treated with poly-L-lysine. After 48 h, cells were washed 2×5 m in serum-free media and incubated with 1 μM FZ3-AM for 40 m at 37° C. Cells were then washed 2×5 m in either EBSS/H (−)Ca/Mg or phenol-red free DMEM+10% FBS containing the indicated treatments for 20 m before imaging. For nuclear colocalization, 1 μg/mL Hoechst 33342 was also included. Cells were imaged using a Zeiss LSM510 META NLO confocal microscope equipped with 37° C. environmental control chamber. FZ3 and Hoechst 33342 were excited at 488 nm (argon laser) and 790 nm (Chameleon Ti:sapphire laser), respectively. To determine the kinetics of fluorescence change, each background-subtracted image in the time-lapse series was integrated in ImageJ and normalized to the integrated fluorescence of the first frame after treatment. For quantification of intracellular [Zn^2+]free, each cell was analyzed in the treated, 50 μM PYR/ZnCl2 (1:1), and 100 μM TPEN images by taking the mean fluorescence of an ROI inside the cell subtracted by an ROI immediately outside the cell measured in ImageJ. The [Zn^2+]free for each cell was then calculated by Eqn 2:
[formula] […] To minimize the effects of outliers the lowest and highest 5% of cells in each series were rejected, and the remaining values averaged to give the value from that experiment. The number of cells analyzed in each trial ranged from 54-163. […]

TOV112D cells = assay: Intracellular [Zn2+]free imaging with FluoZin-3-AM in TOV112D cells; format: cell-based; conditions: ZMC1 alone (no ZnCl2), EBSS/H (−)Ca/Mg
Procedure: as §1
To normalize for differential dye loading, cells were then sequentially treated with excess PYR/ZnCl2, imaged, treated with TPEN, and imaged again. […]
[formula] where Ji is the initial flux, ΔF/Δt is the slope of the fit line, Fmax is RZ-3 fluorescence in the presence of saturating Zn^2+ and 1% TritonX-100, Fmin is RZ-3 fluorescence in the presence of excess EDTA and 1% TritonX-100, [RZ3] is the concentration of encapsulated RZ-3, and SA/Vol is the surface area to volume ratio calculated assuming hollow spheres of the mean diameter determined by DLS. […] To determine the kinetics of fluorescence change, each background-subtracted image in the time-lapse series was integrated in ImageJ and normalized to the integrated fluorescence of the first frame after treatment. […] The [Zn^2+]free for each cell was then calculated by Eqn 2:
[formula] […] The number of cells analyzed in each trial ranged from 54-163. […]

[1] = Liposome import assay (RZ-3 fluorescence); conditions: for Zn2+ transport into liposomes: external [Zn2+]free 10 μM
Procedure: DOPC-liposomes were prepared by film rehydration and extrusion followed by gel filtration and diluted to an OD600=0.06 in buffer. The size distribution of the liposomes was determined by dynamic light scattering (DLS) using a Malvern Zetasizer Nano ZS. Fluorescence measurements were taken on a Horiba Fluoromax-4 spectrofluorimeter in a 5×5 mm quartz cuvette with λex/λem=550/572 nm for RZ-3 and 490/515 nm for calcein. Initial Zn^2+ import/export was quantified by fitting the first 10-30 s of data after each treatment to a line and converted to units of flux using the following Eqn 1:
as §2, with “For nuclear colocalization, 1 μg/mL Hoechst 33342 was also included. Cells were imaged using a Zeiss LSM510 META NLO confocal microscope equipped with 37° C. environmental control chamber. FZ3 and Hoechst 33342 were excited at 488 nm (argon laser) and 790 nm (Chameleon Ti:sapphire laser), respectively.” left out, “2: […]” for “2:”

Zn2+ binding affinity = assay: Zn2+ binding affinity
Procedure: It can function as an ionophore in conditions of the liposome experiments where external [Zn^2+]free was 10 μM. However, in complete media containing 10% fetal bovine serum (FBS), Zn^2+-binding proteins from the serum (e.g. albumin) necessarily compete for Zn^2+ with any putative MC, making the effective [Zn^2+]free much lower than [Zn^2+]total.
FZ3-AM, RZ-3 (K^+ salt), and cell culture media were purchased from Life Technologies. DOPC was purchased from Avanti Polar Lipids. ZMC1 and A6 were similarly obtained. […] HEK293 and TOV112D cells were purchased from ATCC and maintained in DMEM+GlutaMAX with 10% FBS and 1 mg/mL penicillin-streptomycin under a 5% CO2 atmosphere at 37° C. All non-cell based experiments were conducted in 50 mM Tris pH 7.2, 0.1 M NaCl at 25° C.

[2] = HEK293 (non-cancer, p53-WT), FZ3-AM, complete media, confocal microscopy

SMILES | Activity TOV112D (TOV112D) | further results
C/C(=N\Nc1nc2ccccc2s1)c1ccccn1 [Compound 3, (E)-2-(2-(1-(pyridin-2-yl)ethylidene)hydrazinyl)benzo[d]thiazole] | +++ | –
C/C(=N\NC(=S)N1CCC1)c1ccccn1 [ZMC1] | – | increase of intracellular [Zn2+]free (HEK293 cells; [2]): increased; increase of intracellular [Zn2+]free (HEK293 cells; HEK293, ZMC1 alone (no ZnCl2), EBSS/H (−)Ca/Mg): neither cell type showed an increase; increase of intracellular [Zn2+]free (TOV112D cells): neither cell type showed an increase; RZ-3 fluorescence after reversal of the [Zn2+]free gradient (Zn2+ export) ([1]; large excess of EDTA outside of the liposomes, then ZMC1 added): time dependent decrease
C/C(=N\Nc1nc2ccccc2n1C)c1ccccn1 [Compound 10, (E)-1-methyl-2-(2-(1-(pyridin-2-yl)ethylidene)hydrazinyl)-1H-benzo[d]imidazole] | +++ | –
O=C(O)CN(CC(=O)O)CC(=O)O [NTA] | – | increase of intracellular [Zn2+]free (HEK293 cells; [2]): did not; Zn2+ transport into liposomes [1]: did not
C/C(=N\NC(=O)N1CCC1)c1ccccn1 [Compound A6] | – | increase of intracellular [Zn2+]free (HEK293 cells; [2]): did not; Zn2+ transport into liposomes [1]: shuttled Zn^2+ into the liposomes; Kd (Zn2+ binding affinity): 1.1 µM
C/C(=N\Nc1nc2ccc(F)cc2s1)c1ccccn1 [Compound 15, (E)-6-fluoro-2-(2-(1-(pyridin-2-yl)ethylidene)hydrazinyl)benzo[d]thiazole] | +++ | –
C/C(=N\Nc1nc2ccccc2o1)c1ccccn1 [Compound 4, (E)-2-(2-(1-(pyridin-2-yl)ethylidene)hydrazinyl)benzo[d]oxazole] | +++ | –
C/C(=N\NC(=S)N1CCC1)c1cnccn1 [Compound 1, (E)-N′-(1-(Pyrazin-2-yl)ethylidene)azetidine-1-carbothiohydrazide] | ++ | –
CC(C)/C(=N\Nc1nc2ccccc2s1)c1ccccn1 [Compound 12, (E)-2-(2-(2-methyl-1-(pyridin-2-yl)propylidene)hydrazinyl)benzo[d]thiazole] | + | –
C/C(=N\Nc1nc2ccccc2s1)c1ncc[nH]1 [Compound 13, (E)-2-(2-(1-(1H-imidazol-2-yl)ethylidene)hydrazinyl)benzo[d]thiazole] | + | –
C/C(=N\NC(=S)N1CCC1)c1cc(N(C)C)ccn1 [Compound 2, (E)-N′-(1-(4-(dimethylamino)pyridin-2-yl)ethylidene)azetidine-1-carbothiohydrazide] | +++ | –
C/C(=N\Nc1nc2ccccc2[nH]1)c1ccccn1 [Compound 9, (E)-2-(2-(1-(pyridin-2-yl)ethylidene)hydrazinyl)-1H-benzo[d]imidazole] | +++ | –
CC/C(=N\Nc1nc2ccccc2s1)c1ccccn1 [Compound 11, (E)-2-(2-(1-(pyridin-2-yl)propylidene)hydrazinyl)benzo[d]thiazole] | +++ | –
C/C(=N\Nc1nc2cc(F)ccc2s1)c1ccccn1 [Compound 14, (E)-5-fluoro-2-(2-(1-(pyridin-2-yl)ethylidene)hydrazinyl)benzo[d]thiazole] | +++ | –
